Test [1] concerns the target T1, CB1R-AT1R heteromer (UniProt P30556+P47746).
T1 construct: Neuro2A cells expressing endogenous CB1R and recombinant AT1R; expressed in transfected cells; host or cells: Neuro2A stably expressing AT1R (CB1R endogenous)
Description: Ang II-mediated pERK in Neuro2A-AT1R cells. It is filed as cell-based. As to the method: (§1) Generation of HEK293-Transfected Cells and Neuro2A Cell Line Stably Expressing AT1R. These cell lines were generated using standard procedure of transfection and antibiotic selection of expressing cells. Screening of positive cells was carried out by immunostaining of the receptors to evaluate the homogeneity of expression in the clones.
RNAi-mediated CB1R and βarrestin-2 downregulation.
Neuro2A cells expressing endogenous CB1R and recombinant AT1R were pretreated with vehicle or THL (2 μM) for 3 hours in serum free media and stimulated with vehicle (CTL=control) or with the receptor ligand (angiotensin II) for 3 minutes. […] ERK phosphorylation was assessed by Western blot using antibodies to pERK and ERK (n=3-5). […] The cells were processed for infrared detection of pERK.

Test [2] relates to profibrogenic genes. Description: Profibrogenic gene expression in liver of CCl4 or vehicle treated mice. It is filed as in vivo.
Test [3] relates to DAGL. Conditions: cited from earlier work.
Test [4] concerns the target T2, AT1R (Rattus norvegicus, UniProt P25095).
T2 construct: a profibrogenic receptor, AT1R, which was also expressed in cHSCs; endogenous in cells; host or cells: primary hepatic stellate cells from control-diet Sprague-Dawley rats (cHSCs)
T2 sequence (P25095 1-359): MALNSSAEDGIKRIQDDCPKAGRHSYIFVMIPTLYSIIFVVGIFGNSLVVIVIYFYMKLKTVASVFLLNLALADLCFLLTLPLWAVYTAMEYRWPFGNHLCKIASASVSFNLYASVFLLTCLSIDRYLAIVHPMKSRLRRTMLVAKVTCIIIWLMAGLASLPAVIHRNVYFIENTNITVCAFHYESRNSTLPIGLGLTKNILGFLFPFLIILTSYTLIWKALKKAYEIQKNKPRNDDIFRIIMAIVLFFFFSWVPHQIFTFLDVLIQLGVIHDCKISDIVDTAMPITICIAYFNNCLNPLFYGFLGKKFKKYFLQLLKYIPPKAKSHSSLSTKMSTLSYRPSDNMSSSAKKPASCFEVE
In words: Ang II-mediated pERK in control HSCs (cHSCs), Western blot. To be noted: cHSCs from control rats; Ang II stimulation; THL pretreatment 10 or 30 minutes. The test is classed as cell-based. The text has this:
HSCs from ethanol treated rats were generated in the laboratory of Dr. Natalia Nieto: Rats (300 g female Sprague-Dawley, N=10/group) were fed the control or ethanol Lieber-DeCarli diets for 8 months (Lieber and DeCarli, 1989). Animals received humane care according to the criteria outlined in the Guide for Care and Use of Laboratory Animals. Details regarding pathology of the liver of the control and alcohol fed rats are described in (Cubero and Nieto, 2008; Urtasun et al., 2009).
Isolation of Hepatic Stellate Cells: These were isolated as described before. (Friedman, S. L. Hepatic stellate cells: protean, multifunctional, and enigmatic cells of the liver. Physiol Rev 88, 125-72 (2008); Teixeira-Clerc, F. et al. CB1 cannabinoid receptor antagonism: a new strategy for the treatment of liver fibrosis. Nat Med 12, 671-6 (2006)).

The test system of test [5] is α-SMA, TGFβ, pro-collagen α III and pro-collagen α I. Description: Ang II-mediated fibrogenic response in eHSC, real-time PCR. To be noted: eHSCs, 4 hours, mRNA normalized to GAPDH. The test is classed as cell-based, rat. How it is done: (§2) Reverse Transcription and Real-Time PCR. Total RNA was isolated from 3×10^8 HSCs using the TRIzol method (Invitrogen, Carlsbad, Calif., USA). RNA (1.0 μg) was reverse-transcribed in 20 μl of buffer containing 50 μM oligo(dT)20, 25 mM MgCl2, 0.1 M dithiothreitol, 40 U/μl RNaseOUT, and 200 U/μl SuperScript III RT for 50 min at 50° C. The reaction was stopped by incubating the samples at 85° C. for 5 min, and 40 μl of nuclease-free water was added. Real-time PCR was performed by using the Brilliant SYBR Green QPCR Master Mix. The PCR template source was either 30 ng of first-strand cDNA or purified DNA standard. Primer sequences used to amplify the desired cDNA are detailed in Table 2. Amplification was performed with a spectrofluorometric thermal cycler (Stratagene). After an initial denaturation step at 95° C. for 10 min, amplification was performed using 40 cycles of denaturation (95° C. for 30 s), annealing (56° C. for 1 min), and extension (72° C. for 1 min). To standardize mRNA levels, we amplified GAPDH, a housekeeping gene, as an internal control. […] For analysis of gene expression, after reverse transcription, the number of copies of mRNA for the indicated transcripts were determined by real-time PCR. Data were normalized to GAPDH mRNA and are expressed as the mean±SD (n=3 in quadruplicate).

Test [6] shares this test system. Description: CGS21680-mediated fibrogenic response in eHSC, real-time PCR. The test is classed as cell-based, rat. Conditions: eHSCs, 6 hours, mRNA normalized to GAPDH. How it is done:
as §2, with “quadruplicate). […]” for “quadruplicate).”

The target of test [7] is T3, CB1R-AT1R heteromer (Rattus norvegicus, UniProt P20272+P25095).
T3 construct: endogenous in cells; host or cells: primary hepatic stellate cells from ethanol-fed Sprague-Dawley rats (eHSCs)
T3 sequence (P20272 whole entry, one chain of several): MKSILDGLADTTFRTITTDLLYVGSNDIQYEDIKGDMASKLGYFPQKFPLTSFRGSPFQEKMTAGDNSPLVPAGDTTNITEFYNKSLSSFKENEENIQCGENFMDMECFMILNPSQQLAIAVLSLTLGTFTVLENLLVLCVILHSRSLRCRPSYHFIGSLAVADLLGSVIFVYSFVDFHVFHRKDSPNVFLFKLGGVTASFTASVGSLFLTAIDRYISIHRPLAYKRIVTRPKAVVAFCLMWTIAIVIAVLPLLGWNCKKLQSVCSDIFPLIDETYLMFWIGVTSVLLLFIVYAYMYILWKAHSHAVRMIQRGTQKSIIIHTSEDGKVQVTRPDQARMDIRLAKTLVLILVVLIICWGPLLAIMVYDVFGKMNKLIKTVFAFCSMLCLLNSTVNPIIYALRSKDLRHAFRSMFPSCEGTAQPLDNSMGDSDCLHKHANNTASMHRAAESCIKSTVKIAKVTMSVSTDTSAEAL
Description: Ang II-mediated pERK in activated HSCs (eHSCs), Western blot. The test is classed as cell-based. To be noted: eHSCs from ethanol treated rats; Ang II stimulation; THL pretreatment 10 or 30 minutes; pERK normalized to total ERK. The source says:
Animals received humane care according to the criteria outlined in the Guide for Care and Use of Laboratory Animals.
Isolation of Hepatic Stellate Cells: These were isolated as described before.

The target of test [8] is T4, CB1R-AT1R heteromer (Homo sapiens, UniProt P21554+P30556).
T4 construct: expressed in transfected cells; host or cells: HEK293
T4 sequence (P21554 whole entry): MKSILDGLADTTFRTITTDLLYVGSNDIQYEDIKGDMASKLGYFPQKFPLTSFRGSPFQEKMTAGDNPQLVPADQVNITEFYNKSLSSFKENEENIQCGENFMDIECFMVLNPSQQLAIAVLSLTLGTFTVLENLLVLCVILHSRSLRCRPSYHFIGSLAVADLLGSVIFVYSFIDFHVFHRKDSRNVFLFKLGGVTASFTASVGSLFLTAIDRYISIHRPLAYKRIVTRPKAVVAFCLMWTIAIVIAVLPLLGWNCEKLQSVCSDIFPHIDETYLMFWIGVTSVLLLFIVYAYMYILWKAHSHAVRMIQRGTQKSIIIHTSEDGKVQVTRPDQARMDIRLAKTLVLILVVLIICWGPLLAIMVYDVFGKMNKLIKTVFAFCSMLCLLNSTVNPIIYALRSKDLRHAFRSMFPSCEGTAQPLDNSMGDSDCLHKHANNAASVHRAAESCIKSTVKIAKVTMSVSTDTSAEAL
T4 sequence (P30556 whole entry): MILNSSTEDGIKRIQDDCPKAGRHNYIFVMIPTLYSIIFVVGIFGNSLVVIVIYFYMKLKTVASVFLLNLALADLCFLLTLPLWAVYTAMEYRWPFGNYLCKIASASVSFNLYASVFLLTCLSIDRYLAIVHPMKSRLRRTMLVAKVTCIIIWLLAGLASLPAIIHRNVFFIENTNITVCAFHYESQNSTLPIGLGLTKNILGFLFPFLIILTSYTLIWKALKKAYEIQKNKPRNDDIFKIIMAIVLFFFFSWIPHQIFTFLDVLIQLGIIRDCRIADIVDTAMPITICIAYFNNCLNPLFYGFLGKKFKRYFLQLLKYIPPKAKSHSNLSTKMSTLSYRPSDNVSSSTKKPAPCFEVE
Description: Ang II-mediated pERK in HEK293 transfected with AT1R and CB1R. It is filed as cell-based. How it is done:
FIG. 3A. […] ERK phosphorylation was assessed by Western blot using antibodies to pERK and ERK. Data represent mean±SEM (n=4).
as §1

T1 sequence (P47746 whole entry): as the sequence (P20272 whole entry, one chain of several) above, with E95D counted along it
T1 sequence (P30556 whole entry): as the sequence (P30556 whole entry) above

In the case of `CCCCC/C=C\C/C=C\C/C=C\C/C=C\CCCC(=O)OC(CO)CO` [2-AG, 2-arachidonoyl glycerol], the “Effect on THL-induced loss of Ang II-mediated signaling” value in test [1] is “reversed”. In test [1] (THL pretreated Neuro2A-AT1, constant agonist concentration, increasing doses of 2-AG), the “2-AG-mediated ERK1/2 phosphorylation” value is “concentration-dependent”.

Take `CCNC(=O)[C@H]1O[C@@H](n2cnc3c(N)nc(NCCc4ccc(CCC(=O)O)cc4)nc32)[C@H](O)[C@@H]1O` [CGS21680]: the “Expression of profibrogenic genes in liver” value in test [2] (CCl4 treated mice, acute i.p. injection CGS21680 2 mg/kg, 6 hours) is listed as “further increased”; in test [2] (non-fibrotic livers from vehicle-treated mice, CGS21680 2 mg/kg i.p.) it was “did not elevate”.

As to `CCCCCCC(C)(C)c1cc(O)c2c(c1)OC(C)(C)[C@@H]1CC=C(CO)C[C@@H]21` [Hu210], in test [1], the “Effect on AT1R signaling of a non-signaling concentration of CB1R agonist” value is on record as “potentiates” and the “Effect on THL-induced loss of Ang II-mediated signaling” value was “reversed”.

In the case of `O=C(NCCCCCCNC(=O)ON=C1CCCCC1)ON=C1CCCCC1` [RHC80267, 1,6-bis-(cyclohexyloximino-carbonylamino)-hexane], the “Inhibition of DAGL versus other lipases” value in test [3] was “inhibit DAGL at concentrations lower than those required to inhibit other lipases”.

For `Cc1c(C(=O)NN2CCCCC2)nn(-c2ccc(Cl)cc2Cl)c1-c1ccc(Cl)cc1` [SR141716], the “Effect on Ang II-mediated ERK phosphorylation in cHSCs” value in test [4] is given as “not”. Moreover, the “Effect on Ang II-mediated increase in expression of profibrogenic markers” value in test [5] is on record as “prevents”; in test [5] (listed as CB1R antagonist) it was “completely blocked”. In addition, the “Effect on CGS-mediated increase in expression of profibrogenic markers” value in test [6] (listed as CB1R antagonist) is reported as “completely blocked”; in test [6] (listed as SR) it was “prevents”.

For `CCCCCCCCCCC[C@@H](C[C@@H]1OC(=O)[C@H]1CCCCCC)OC(=O)[C@H](CC(C)C)NC=O` [THL, tetrahydrolipstatin], the “Effect on Ang II-mediated ERK phosphorylation in eHSCs” value in test [7] is on record as “decreased”. Moreover, in test [4], the “Effect on Ang II-mediated ERK phosphorylation in cHSCs” value was “not”. For the same compound, in test [8] (HEK293 co-expressing CB1R and AT1R, 10 nM Ang II 3 minutes, SR 1 μM, THL 1 μM, 1 hour pre-treatment), the “Effect on Ang II-mediated signaling (pERK)” value is listed as “marked decrease”. Further, the “ERK1/2 phosphorylation upon agonist stimulation of the associated receptor” value in test [1] (Neuro2A-AT1, THL 2 μM, 3 hours, serum free media, angiotensin II 3 minutes) is “marked decrease”. Moreover, in test [1] (Neuro2A-AT1R), the “Effect on Ang II-mediated signaling (blocking 2-AG production)” value was “loss”. Moreover, in test [3], the “Inhibition of DAGL versus other lipases” value is on record as “inhibit DAGL at concentrations lower than those required to inhibit other lipases”.

For “Ang II: Angiotensin II, an agonist of AT1R (DRVYIHPF)”, the “Increase in pERK on Ang II stimulation” value in test [8] is listed as “greater increase”. Besides, in test [1], the “pERK levels at concentrations of Ang II superior to 10 nM” value is recorded as “decrease”; the “pERK levels on Ang II stimulation” value is “dose-dependent rapid and transient enhancement”.

With pertussis toxin, the “Effect on AT1R signaling (Ang II pERK), G protein coupling” value in test [1] (cells co-expressing CB1R and AT1R, PTX 15 nM, 16 hours, forskolin 1 μM, 30 min) was “markedly inhibited”.

(Values after patent US11141423B2, “Methods of screening compounds useful for treatment of a liver disease” (Icahn School of Medicine at Mount Sinai, priority 2010, dated 2021).)
